Here are results for two compounds from ChEMBL document CHEMBL4800727 (2021).

Molecules are shown by their SMILES.

By inhibition is commonly meant the relative decrease from the control value, in per cent.

Holding throughout (conditions): Compound concentration 10.0 uM
Experiment [1] concerns the target Sodium-dependent serotonin transporter (Homo sapiens) (UniProt P31645).
Experiment [2] deals with T1, Alpha-1B adrenergic receptor (Homo sapiens) (UniProt P35368).
T1 sequence (whole entry): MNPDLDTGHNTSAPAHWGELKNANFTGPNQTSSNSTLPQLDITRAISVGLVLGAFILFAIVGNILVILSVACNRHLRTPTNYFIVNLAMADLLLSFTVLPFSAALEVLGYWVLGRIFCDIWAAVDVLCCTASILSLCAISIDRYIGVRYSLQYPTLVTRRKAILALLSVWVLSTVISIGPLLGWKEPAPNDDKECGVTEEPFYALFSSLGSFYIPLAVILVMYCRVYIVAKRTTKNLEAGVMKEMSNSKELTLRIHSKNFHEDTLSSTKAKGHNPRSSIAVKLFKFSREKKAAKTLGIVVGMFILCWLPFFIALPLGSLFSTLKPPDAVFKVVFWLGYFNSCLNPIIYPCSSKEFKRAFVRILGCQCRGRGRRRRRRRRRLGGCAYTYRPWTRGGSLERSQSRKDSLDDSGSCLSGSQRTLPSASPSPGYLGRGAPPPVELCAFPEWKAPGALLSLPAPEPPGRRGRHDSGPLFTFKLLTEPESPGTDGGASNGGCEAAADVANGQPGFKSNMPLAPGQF

In experiment [3] the target is T2, Muscarinic acetylcholine receptor M1 (Homo sapiens) (UniProt P11229).
T2 sequence (whole entry): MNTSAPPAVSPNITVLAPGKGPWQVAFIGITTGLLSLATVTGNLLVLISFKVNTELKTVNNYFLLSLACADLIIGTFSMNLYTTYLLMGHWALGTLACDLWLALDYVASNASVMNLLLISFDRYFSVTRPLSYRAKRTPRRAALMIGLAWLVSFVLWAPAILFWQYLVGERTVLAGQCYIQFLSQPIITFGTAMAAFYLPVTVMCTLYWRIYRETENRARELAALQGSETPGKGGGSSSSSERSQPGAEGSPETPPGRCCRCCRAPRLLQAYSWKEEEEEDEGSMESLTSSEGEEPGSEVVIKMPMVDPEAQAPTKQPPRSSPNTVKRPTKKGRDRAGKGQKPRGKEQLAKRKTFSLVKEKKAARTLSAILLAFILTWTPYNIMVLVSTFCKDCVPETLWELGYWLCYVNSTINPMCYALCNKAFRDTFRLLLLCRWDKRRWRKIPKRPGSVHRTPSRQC

In experiment [4] the target is 5-hydroxytryptamine receptor 2A (Homo sapiens) (UniProt P28223).
Experiment [5] has as its target 5-hydroxytryptamine receptor 6 (Homo sapiens) (UniProt P50406).
The target of experiment [6] is Sodium-dependent noradrenaline transporter (Homo sapiens) (UniProt P23975).
For experiment [7], the target named is GABA-A receptor; anion channel (Rattus norvegicus) (UniProt O09028+P15431+P18506+P18508+P19969+P20236+P23574+P23576+P28471+P28473+P30191+P62813+P63079+P63138+Q91ZM7+Q9ES14).
Experiment [8] deals with T3, 5-hydroxytryptamine receptor 2C (Homo sapiens) (UniProt P28335).
T3 sequence (whole entry): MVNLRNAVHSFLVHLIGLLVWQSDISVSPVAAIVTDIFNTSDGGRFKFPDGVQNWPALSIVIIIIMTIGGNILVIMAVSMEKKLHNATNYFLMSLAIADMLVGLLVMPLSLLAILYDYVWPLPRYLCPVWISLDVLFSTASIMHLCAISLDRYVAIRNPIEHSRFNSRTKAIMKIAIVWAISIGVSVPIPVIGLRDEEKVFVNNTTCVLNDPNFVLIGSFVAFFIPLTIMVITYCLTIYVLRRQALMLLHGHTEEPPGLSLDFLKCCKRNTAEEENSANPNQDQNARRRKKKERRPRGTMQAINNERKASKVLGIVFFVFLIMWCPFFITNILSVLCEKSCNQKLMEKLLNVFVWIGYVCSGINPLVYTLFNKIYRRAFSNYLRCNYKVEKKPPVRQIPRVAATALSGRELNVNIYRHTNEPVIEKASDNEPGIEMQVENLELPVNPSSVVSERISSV

Experiment [9] addresses T4, Muscarinic acetylcholine receptor M4 (Homo sapiens) (UniProt P08173).
T4 sequence (whole entry): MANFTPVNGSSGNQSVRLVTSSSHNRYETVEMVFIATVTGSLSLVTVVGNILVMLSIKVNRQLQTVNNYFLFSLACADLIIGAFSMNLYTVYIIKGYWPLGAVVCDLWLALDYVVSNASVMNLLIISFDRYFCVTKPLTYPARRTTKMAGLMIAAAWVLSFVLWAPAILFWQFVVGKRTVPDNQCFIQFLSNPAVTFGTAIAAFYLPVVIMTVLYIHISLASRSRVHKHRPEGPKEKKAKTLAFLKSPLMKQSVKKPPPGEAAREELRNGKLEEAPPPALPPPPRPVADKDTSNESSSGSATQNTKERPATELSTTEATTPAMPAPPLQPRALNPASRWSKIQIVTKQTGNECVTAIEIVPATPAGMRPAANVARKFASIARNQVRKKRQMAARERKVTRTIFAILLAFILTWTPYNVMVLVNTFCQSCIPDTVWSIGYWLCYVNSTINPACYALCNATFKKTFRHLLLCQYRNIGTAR

The target in experiment [10] is D(1A) dopamine receptor (Homo sapiens) (UniProt P21728).
Experiment [11] concerns the target Mu-type opioid receptor (Homo sapiens) (UniProt P35372).
The target in experiment [12] is T5, 5-hydroxytryptamine receptor 3A (Homo sapiens) (UniProt P46098).
T5 sequence (whole entry): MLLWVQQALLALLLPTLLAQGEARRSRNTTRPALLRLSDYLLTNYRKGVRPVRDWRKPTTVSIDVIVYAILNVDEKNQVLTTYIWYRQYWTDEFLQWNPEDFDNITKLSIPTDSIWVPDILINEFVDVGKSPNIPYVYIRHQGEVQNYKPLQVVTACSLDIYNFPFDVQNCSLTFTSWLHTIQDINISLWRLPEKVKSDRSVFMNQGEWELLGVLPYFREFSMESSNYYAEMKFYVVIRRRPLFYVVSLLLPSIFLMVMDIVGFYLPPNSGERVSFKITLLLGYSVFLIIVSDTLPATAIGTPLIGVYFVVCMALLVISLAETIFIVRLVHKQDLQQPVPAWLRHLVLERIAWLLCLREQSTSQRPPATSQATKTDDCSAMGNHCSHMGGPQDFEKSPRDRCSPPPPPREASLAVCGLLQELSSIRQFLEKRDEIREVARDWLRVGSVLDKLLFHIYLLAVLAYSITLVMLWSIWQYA

Sequence of Mu-type opioid receptor (Homo sapiens) (P35372 whole entry): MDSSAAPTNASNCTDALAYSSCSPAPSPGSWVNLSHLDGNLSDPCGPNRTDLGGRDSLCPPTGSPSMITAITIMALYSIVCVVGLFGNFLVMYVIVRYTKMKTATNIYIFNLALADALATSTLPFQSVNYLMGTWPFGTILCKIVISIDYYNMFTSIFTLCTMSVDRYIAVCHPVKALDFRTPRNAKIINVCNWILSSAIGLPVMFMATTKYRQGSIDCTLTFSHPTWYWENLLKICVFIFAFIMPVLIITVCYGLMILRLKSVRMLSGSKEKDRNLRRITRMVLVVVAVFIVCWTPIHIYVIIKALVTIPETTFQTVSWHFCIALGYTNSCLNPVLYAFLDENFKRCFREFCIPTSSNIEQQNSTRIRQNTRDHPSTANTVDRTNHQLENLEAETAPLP
Sequence of D(1A) dopamine receptor (Homo sapiens) (P21728 whole entry): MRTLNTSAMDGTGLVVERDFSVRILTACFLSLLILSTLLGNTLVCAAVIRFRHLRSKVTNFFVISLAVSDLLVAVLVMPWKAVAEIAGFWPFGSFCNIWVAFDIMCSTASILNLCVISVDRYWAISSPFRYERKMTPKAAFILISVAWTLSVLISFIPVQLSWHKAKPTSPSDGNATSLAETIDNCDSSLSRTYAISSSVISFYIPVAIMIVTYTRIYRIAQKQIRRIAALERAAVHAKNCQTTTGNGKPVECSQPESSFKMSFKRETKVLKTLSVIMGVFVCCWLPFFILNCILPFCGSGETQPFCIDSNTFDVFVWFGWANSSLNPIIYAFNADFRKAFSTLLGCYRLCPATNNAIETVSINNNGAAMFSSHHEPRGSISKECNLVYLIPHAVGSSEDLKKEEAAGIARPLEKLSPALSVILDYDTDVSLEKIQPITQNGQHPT
Sequence of 5-hydroxytryptamine receptor 2A (Homo sapiens) (P28223 whole entry): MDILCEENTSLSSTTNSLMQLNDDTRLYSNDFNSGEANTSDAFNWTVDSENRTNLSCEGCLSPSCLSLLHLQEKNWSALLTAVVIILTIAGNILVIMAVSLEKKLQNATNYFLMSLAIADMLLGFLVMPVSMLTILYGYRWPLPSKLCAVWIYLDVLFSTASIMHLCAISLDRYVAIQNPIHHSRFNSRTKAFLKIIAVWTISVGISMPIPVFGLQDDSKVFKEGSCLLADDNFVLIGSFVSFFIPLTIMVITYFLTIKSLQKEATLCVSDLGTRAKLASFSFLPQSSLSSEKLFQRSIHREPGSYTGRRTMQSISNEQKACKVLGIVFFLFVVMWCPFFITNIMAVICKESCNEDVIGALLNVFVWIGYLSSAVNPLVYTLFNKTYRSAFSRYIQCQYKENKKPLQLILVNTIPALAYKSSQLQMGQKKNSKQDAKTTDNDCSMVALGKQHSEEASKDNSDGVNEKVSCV
Sequence of 5-hydroxytryptamine receptor 6 (Homo sapiens) (P50406 whole entry): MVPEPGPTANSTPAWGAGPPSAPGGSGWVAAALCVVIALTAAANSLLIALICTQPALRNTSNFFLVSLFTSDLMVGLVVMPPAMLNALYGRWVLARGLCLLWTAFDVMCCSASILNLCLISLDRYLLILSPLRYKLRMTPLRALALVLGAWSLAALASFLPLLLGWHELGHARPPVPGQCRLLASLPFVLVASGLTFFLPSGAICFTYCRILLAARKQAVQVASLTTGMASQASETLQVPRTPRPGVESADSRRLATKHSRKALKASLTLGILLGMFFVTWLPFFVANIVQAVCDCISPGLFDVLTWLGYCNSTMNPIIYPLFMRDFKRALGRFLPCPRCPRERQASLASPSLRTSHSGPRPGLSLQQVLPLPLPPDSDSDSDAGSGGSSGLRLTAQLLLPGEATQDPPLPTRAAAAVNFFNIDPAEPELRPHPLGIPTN
Sequence of Sodium-dependent noradrenaline transporter (Homo sapiens) (P23975 whole entry): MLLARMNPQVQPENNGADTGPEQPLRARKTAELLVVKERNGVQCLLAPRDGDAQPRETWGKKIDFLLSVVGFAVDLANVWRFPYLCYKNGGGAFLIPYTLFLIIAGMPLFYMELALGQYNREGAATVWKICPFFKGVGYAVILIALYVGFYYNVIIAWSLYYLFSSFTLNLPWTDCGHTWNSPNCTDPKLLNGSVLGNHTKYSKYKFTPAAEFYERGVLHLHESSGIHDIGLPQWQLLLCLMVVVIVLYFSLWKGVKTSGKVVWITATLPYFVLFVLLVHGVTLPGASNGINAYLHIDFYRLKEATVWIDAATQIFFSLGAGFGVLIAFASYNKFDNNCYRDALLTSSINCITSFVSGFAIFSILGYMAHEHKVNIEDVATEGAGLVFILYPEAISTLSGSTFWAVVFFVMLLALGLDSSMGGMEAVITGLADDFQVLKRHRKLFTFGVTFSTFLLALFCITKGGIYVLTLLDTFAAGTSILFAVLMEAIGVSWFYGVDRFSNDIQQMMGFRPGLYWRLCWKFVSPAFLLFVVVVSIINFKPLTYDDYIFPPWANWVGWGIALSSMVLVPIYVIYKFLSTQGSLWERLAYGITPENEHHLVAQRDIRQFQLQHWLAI
Sequence of Sodium-dependent serotonin transporter (Homo sapiens) (P31645 whole entry, looked up): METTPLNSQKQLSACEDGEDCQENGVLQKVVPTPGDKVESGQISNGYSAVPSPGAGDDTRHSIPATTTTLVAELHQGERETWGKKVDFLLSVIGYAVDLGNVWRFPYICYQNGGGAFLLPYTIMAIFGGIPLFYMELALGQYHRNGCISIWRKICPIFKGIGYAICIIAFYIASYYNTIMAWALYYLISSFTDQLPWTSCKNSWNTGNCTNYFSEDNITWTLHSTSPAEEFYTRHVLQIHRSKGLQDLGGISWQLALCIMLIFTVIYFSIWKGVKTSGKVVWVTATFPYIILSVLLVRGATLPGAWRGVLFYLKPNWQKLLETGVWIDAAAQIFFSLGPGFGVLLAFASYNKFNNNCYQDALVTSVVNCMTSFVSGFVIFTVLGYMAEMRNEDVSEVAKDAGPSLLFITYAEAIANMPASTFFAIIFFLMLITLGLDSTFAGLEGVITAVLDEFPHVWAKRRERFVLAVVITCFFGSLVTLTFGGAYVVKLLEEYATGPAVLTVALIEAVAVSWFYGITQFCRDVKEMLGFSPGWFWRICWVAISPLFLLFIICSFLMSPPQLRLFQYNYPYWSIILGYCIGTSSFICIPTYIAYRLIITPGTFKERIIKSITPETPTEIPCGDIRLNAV

As to `c1ccc(C2CCN(c3cnc4c(N5CCOCC5)nccn34)CC2)cc1`, the inhibition in experiment [1] is 3.12%; in [2], 0.45%; in experiment [3], 23.7%; in [4], 13.1%; in [5], -7.87%; in experiment [6], 17.4%. The inhibition in [7] was 59.8%; in [8], 5.92%; in experiment [9], -5.45%; in experiment [10], 10.6%; in experiment [11], 19.6%; in experiment [12], 9.38%.

Regarding `COCCc1ccc(-c2c(C)nc3c(N4CCOCC4)ccnn23)cn1` [JNJ-42396302], the inhibition was 0.57% in [1]; -8.94% in experiment [2]; 2.83% in experiment [3]; 45.9% in experiment [4]; 18.5% in experiment [5]; 16% in experiment [6]. Further, the inhibition in [7] is 0.32%; in experiment [8] it was 68.2%; in [9] it was 5.21%; in [10], 2.41%; in [11], -1.51%; in [12], 4.69%.
